Test results reported in US5602153A, “Method of using 1-arylheteroarylalkyl substituted-1H-1,2,4-triazole compounds for treatment of a giaucoma disorder” (G.D. Searle & Co., priority 1993, dated 1997).

Tested on: pressor response to AII
Experiment: Assay D: In Vivo Intragastric Pressor Assay Response for AII Antagonists of Examples #1 and #3
Design: species or system rat (male Sprague-Dawley)
Details: 3 mg/kg gavage
Method: Assay D: In Vivo Intragastric Pressor Assay Response for AII Antagonists of Examples #1 and #3
Male Sprague-Dawley rats weighing 225-300 grams were anesthetized with methohexital (30 mg/kg, i.p.) and catheters were implanted into the femoral artery and vein. The catheters were tunneled subcutaneously to exit dorsally, posterior to the head and between the scapulae. The catheters were filled with heparin (1000 units/ml of saline). The rats were returned to their cage and allowed regular rat chow and water ad libitum. After full recovery from surgery (3-4 days), rats were placed in Lucite holders and the arterial line was connected to a pressure transducer. Arterial pressure was recorded on a Gould polygraph (mmHg). Angiotensin II was administered as a 30 ng/kg bolus via the venous catheter delivered in a 50 μl volume with a 0.2 ml saline flush. The pressor response in mm Hg was measured by the difference from pre-injection arterial pressure to the maximum pressure achieved. The AII injection was repeated every 10 minutes until three consecutive injections yielded responses within 4 mmHg of each other. These three responses were then averaged and represented the control response to AII. The test compound was suspended in 0.5% methylcellulose in water and was administered by gavage. The volume administered was 2 ml/kg body weight. The standard dose was 3 mg/kg. […] The pressor response to AII was measured at each time point. The rats were then returned to their cage for future testing. A minimum of 3 days was allowed between tests. Percent inhibition was calculated for each time point following gavage by the following formula: [(Control Response-Response at time point)/Control Response]×100.

## CCCCc1nc(CCCC)n(Cc2ccc(-c3ccccc3-c3nnn[nH]3)cn2)n1 [Example 1, 5-[2-[6-[(3,5-dibutyl-1H-1,2,4-triazol-1-yl)methyl]-3-pyridinyl]phenyl]-1H-tetrazole]
Rat A, 0 min
  % Inhibition of Blood Pressure Elevation: 0%
Rat A, 30 min
  % Inhibition of Blood Pressure Elevation: 14%
Rat A, 45 min
  % Inhibition of Blood Pressure Elevation: 20%
Rat A, 60 min
  % Inhibition of Blood Pressure Elevation: 40%
Rat A, 75 min
  % Inhibition of Blood Pressure Elevation: 33%
Rat A, 90 min
  % Inhibition of Blood Pressure Elevation: 37%
Rat A, 120 min
  % Inhibition of Blood Pressure Elevation: 37%
Rat A, 150 min
  % Inhibition of Blood Pressure Elevation: 40%
Rat A, 180 min
  % Inhibition of Blood Pressure Elevation: 33%
Rat B, 0 min
  % Inhibition of Blood Pressure Elevation: 0%
Rat B, 30 min
  % Inhibition of Blood Pressure Elevation: 11%
Rat B, 45 min
  % Inhibition of Blood Pressure Elevation: 15%
Rat B, 60 min
  % Inhibition of Blood Pressure Elevation: 26%
Rat B, 75 min
  % Inhibition of Blood Pressure Elevation: 23%
Rat B, 90 min
  % Inhibition of Blood Pressure Elevation: 21%
Rat B, 120 min
  % Inhibition of Blood Pressure Elevation: 23%
Rat B, 150 min
  % Inhibition of Blood Pressure Elevation: 23%
Rat B, 180 min
  % Inhibition of Blood Pressure Elevation: 13%
Rat C, 0 min
  % Inhibition of Blood Pressure Elevation: 0%
Rat C, 30 min
  % Inhibition of Blood Pressure Elevation: 16%
Rat C, 45 min
  % Inhibition of Blood Pressure Elevation: 6%
Rat C, 60 min
  % Inhibition of Blood Pressure Elevation: 29%
Rat C, 75 min
  % Inhibition of Blood Pressure Elevation: 2%
Rat C, 90 min
  % Inhibition of Blood Pressure Elevation: 10%
Rat C, 120 min
  % Inhibition of Blood Pressure Elevation: 16%
Rat C, 150 min
  % Inhibition of Blood Pressure Elevation: -4%
Rat C, 180 min
  % Inhibition of Blood Pressure Elevation: 10%
Rats A-C Mean ± SE, 30 min
  % Inhibition of Blood Pressure Elevation: 14 ± 2%
Rats A-C Mean ± SE, 45 min
  % Inhibition of Blood Pressure Elevation: 14 ± 4%
Rats A-C Mean ± SE, 60 min
  % Inhibition of Blood Pressure Elevation: 31 ± 4%
Rats A-C Mean ± SE, 75 min
  % Inhibition of Blood Pressure Elevation: 20 ± 9%
Rats A-C Mean ± SE, 90 min
  % Inhibition of Blood Pressure Elevation: 23 ± 8%
Rats A-C Mean ± SE, 120 min
  % Inhibition of Blood Pressure Elevation: 26 ± 6%
Rats A-C Mean ± SE, 150 min
  % Inhibition of Blood Pressure Elevation: 20 ± 13%
Rats A-C Mean ± SE, 180 min
  % Inhibition of Blood Pressure Elevation: 19 ± 7%

## CCCCc1nc(CCCC)n(Cc2ccc(-c3ccccc3-c3nnn[nH]3)nc2)n1 [Example 3, 5-[2-[5-[(3,5-dibutyl-1H-1,2,4-triazol-1-yl)methyl]-2-pyridinyl]phenyl]-1H-tetrazole]
Rat A, 0 min
  % Inhibition of Blood Pressure Elevation: 0%
Rat A, 30 min
  % Inhibition of Blood Pressure Elevation: 64%
Rat A, 45 min
  % Inhibition of Blood Pressure Elevation: 67%
Rat A, 60 min
  % Inhibition of Blood Pressure Elevation: 52%
Rat A, 75 min
  % Inhibition of Blood Pressure Elevation: 45%
Rat A, 90 min
  % Inhibition of Blood Pressure Elevation: 60%
Rat A, 120 min
  % Inhibition of Blood Pressure Elevation: 41%
Rat A, 150 min
  % Inhibition of Blood Pressure Elevation: 38%
Rat A, 180 min
  % Inhibition of Blood Pressure Elevation: 24%
Rat B, 0 min
  % Inhibition of Blood Pressure Elevation: 0%
Rat B, 30 min
  % Inhibition of Blood Pressure Elevation: 55%
Rat B, 45 min
  % Inhibition of Blood Pressure Elevation: 71%
Rat B, 60 min
  % Inhibition of Blood Pressure Elevation: 55%
Rat B, 75 min
  % Inhibition of Blood Pressure Elevation: 53%
Rat B, 90 min
  % Inhibition of Blood Pressure Elevation: 50%
Rat B, 120 min
  % Inhibition of Blood Pressure Elevation: 50%
Rat B, 150 min
  % Inhibition of Blood Pressure Elevation: 53%
Rat B, 180 min
  % Inhibition of Blood Pressure Elevation: 40%
Rat C, 0 min
  % Inhibition of Blood Pressure Elevation: 0%
Rat C, 30 min
  % Inhibition of Blood Pressure Elevation: 15%
Rat C, 45 min
  % Inhibition of Blood Pressure Elevation: 12%
Rat C, 60 min
  % Inhibition of Blood Pressure Elevation: 46%
Rat C, 75 min
  % Inhibition of Blood Pressure Elevation: 27%
Rat C, 90 min
  % Inhibition of Blood Pressure Elevation: 46%
Rat C, 120 min
  % Inhibition of Blood Pressure Elevation: 53%
Rat C, 150 min
  % Inhibition of Blood Pressure Elevation: 50%
Rat C, 180 min
  % Inhibition of Blood Pressure Elevation: 62%
Rat D, 0 min
  % Inhibition of Blood Pressure Elevation: 0%
Rat D, 30 min
  % Inhibition of Blood Pressure Elevation: 21%
Rat D, 45 min
  % Inhibition of Blood Pressure Elevation: 14%
Rat D, 60 min
  % Inhibition of Blood Pressure Elevation: 36%
Rat D, 75 min
  % Inhibition of Blood Pressure Elevation: 36%
Rat D, 90 min
  % Inhibition of Blood Pressure Elevation: 26%
Rat D, 120 min
  % Inhibition of Blood Pressure Elevation: 34%
Rat D, 150 min
  % Inhibition of Blood Pressure Elevation: 29%
Rat D, 180 min
  % Inhibition of Blood Pressure Elevation: 3%
Rat E, 0 min
  % Inhibition of Blood Pressure Elevation: 0%
Rat E, 30 min
  % Inhibition of Blood Pressure Elevation: 52%
Rat E, 45 min
  % Inhibition of Blood Pressure Elevation: 43%
Rat E, 60 min
  % Inhibition of Blood Pressure Elevation: 38%
Rat E, 75 min
  % Inhibition of Blood Pressure Elevation: 43%
Rat E, 90 min
  % Inhibition of Blood Pressure Elevation: 29%
Rat E, 120 min
  % Inhibition of Blood Pressure Elevation: 29%
Rat E, 150 min
  % Inhibition of Blood Pressure Elevation: 16%
Rat E, 180 min
  % Inhibition of Blood Pressure Elevation: 16%
Rats A-E Mean ± SE, 0 min
  % Inhibition of Blood Pressure Elevation: 0%
Rats A-E Mean ± SE, 30 min
  % Inhibition of Blood Pressure Elevation: 42 ± 10%
Rats A-E Mean ± SE, 45 min
  % Inhibition of Blood Pressure Elevation: 41 ± 13%
Rats A-E Mean ± SE, 60 min
  % Inhibition of Blood Pressure Elevation: 46 ± 4%
Rats A-E Mean ± SE, 75 min
  % Inhibition of Blood Pressure Elevation: 41 ± 4%
Rats A-E Mean ± SE, 90 min
  % Inhibition of Blood Pressure Elevation: 42 ± 6%
Rats A-E Mean ± SE, 120 min
  % Inhibition of Blood Pressure Elevation: 41 ± 5%
Rats A-E Mean ± SE, 150 min
  % Inhibition of Blood Pressure Elevation: 37 ± 7%
Rats A-E Mean ± SE, 180 min
  % Inhibition of Blood Pressure Elevation: 29 ± 10%
